Source: ChEMBL document CHEMBL3045275, “Synthesis and antibacterial activity of some new hydrazones” (2013)

What was measured:
Format in all cases: functional
Details in all cases: read-out: DIZ
Proteus mirabilis [1] = test: Antibacterial activity against Proteus mirabilis assessed as diameter of growth inhibition zone at 100 ug/ml after 24 hr by agar diffusion method
Pseudomonas aeruginosa [2] = test: Antibacterial activity against Pseudomonas aeruginosa assessed as diameter of growth inhibition zone at 50 ug/ml after 24 hr by agar diffusion method
Salmonella typhi [3] = test: Antibacterial activity against Salmonella enterica subsp. enterica serovar Typhi assessed as diameter of growth inhibition zone at 50 ug/ml after 24 hr by agar diffusion method
Proteus mirabilis [4] = test: Antibacterial activity against Proteus mirabilis assessed as diameter of growth inhibition zone at 50 ug/ml after 24 hr by agar diffusion method
Salmonella typhi [5] = test: Antibacterial activity against Salmonella enterica subsp. enterica serovar Typhi assessed as diameter of growth inhibition zone at 100 ug/ml after 24 hr by agar diffusion method
Staphylococcus aureus [6] = test: Antibacterial activity against Staphylococcus aureus assessed as diameter of growth inhibition zone at 100 ug/ml after 24 hr by agar diffusion method
Pseudomonas aeruginosa [7] = test: Antibacterial activity against Pseudomonas aeruginosa assessed as diameter of growth inhibition zone at 100 ug/ml after 24 hr by agar diffusion method
Escherichia coli [8] = test: Antibacterial activity against Escherichia coli assessed as diameter of growth inhibition zone at 50 ug/ml after 24 hr by agar diffusion method
Bacillus subtilis [9] = test: Antibacterial activity against Bacillus subtilis assessed as diameter of growth inhibition zone at 50 ug/ml after 24 hr by agar diffusion method
Escherichia coli [10] = test: Antibacterial activity against Escherichia coli assessed as diameter of growth inhibition zone at 100 ug/ml after 24 hr by agar diffusion method
Bacillus subtilis [11] = test: Antibacterial activity against Bacillus subtilis assessed as diameter of growth inhibition zone at 100 ug/ml after 24 hr by agar diffusion method
Staphylococcus aureus [12] = test: Antibacterial activity against Staphylococcus aureus assessed as diameter of growth inhibition zone at 50 ug/ml after 24 hr by agar diffusion method

Row | SMILES | zone of inhibition at 100 µg/mL (Proteus mirabilis [1]) | zone of inhibition at 50 µg/mL (Pseudomonas aeruginosa [2]) | zone of inhibition at 50 µg/mL (Salmonella typhi [3]) | zone of inhibition at 50 µg/mL (Proteus mirabilis [4]) | zone of inhibition at 100 µg/mL (Salmonella typhi [5]) | zone of inhibition at 100 µg/mL (Staphylococcus aureus [6]) | zone of inhibition at 100 µg/mL (Pseudomonas aeruginosa [7]) | zone of inhibition at 50 µg/mL (Escherichia coli [8]) | zone of inhibition at 50 µg/mL (Bacillus subtilis [9]) | zone of inhibition at 100 µg/mL (Escherichia coli [10]) | zone of inhibition at 100 µg/mL (Bacillus subtilis [11]) | zone of inhibition at 50 µg/mL (Staphylococcus aureus [12])
1 | O=[N+]([O-])c1ccc(N/N=C(/C=C/c2ccccc2)c2ccccc2)c([N+](=O)[O-])c1 | 9.5 mm | 6 mm | 6.5 mm | 6.5 mm | 8.5 mm | 8.5 mm | 8.5 mm | 6.5 mm | 6.5 mm | 8 mm | 9 mm | 6 mm
2 | CC(/C=C/c1ccccc1)=N\Nc1ccccc1 | 9 mm | 6 mm | 6.5 mm | 6 mm | 8.5 mm | 8.5 mm | 8.5 mm | 6 mm | 6.5 mm | 8.5 mm | 8.5 mm | 6 mm
3 | CC1=NC(=C/c2ccccc2)/C(=N/Nc2ccccc2)O1 | 8.5 mm | 6 mm | 6 mm | 6.5 mm | 8 mm | 16 mm | 8 mm | 6.5 mm | 6 mm | 9 mm | 9.5 mm | 14 mm
4 | CC1=NC(=C/c2ccccc2)/C(=N/Nc2ccc([N+](=O)[O-])cc2[N+](=O)[O-])O1 | 9.5 mm | 6 mm | 6.5 mm | 6 mm | 8 mm | 9 mm | 8.5 mm | 6 mm | 6 mm | 8.5 mm | 9 mm | 6.5 mm
5 | CC(/C=C/c1ccccc1)=N/Nc1nc(-c2ccccc2)cs1 | 8 mm | 6 mm | 6 mm | 6.5 mm | 8 mm | 9.5 mm | 8 mm | 6 mm | 6 mm | 9 mm | 8.5 mm | 6.5 mm
6 | C(=C\c1ccccc1)/C(=N\Nc1nc(-c2ccccc2)cs1)c1ccccc1 | 8.5 mm | 6 mm | 6 mm | 6.5 mm | 8 mm | 8.5 mm | 8 mm | 7 mm | 6.5 mm | 8.5 mm | 8.5 mm | 6.5 mm
7 | CC(/C=C/c1ccccc1)=N\Nc1ccc(-c2nc3ccccc3[nH]2)cc1 | 8.5 mm | 6 mm | 6 mm | 6.5 mm | 8 mm | 8 mm | 8 mm | 6.5 mm | 6 mm | 9 mm | 8.5 mm | 6.5 mm
8 | C(=C\c1ccccc1)/C(=N/Nc1ccc(-c2nc3ccccc3[nH]2)cc1)c1ccccc1 | 8.5 mm | 6 mm | 6.5 mm | 6 mm | 8 mm | 9 mm | 8.5 mm | 6 mm | 6 mm | 8.5 mm | 8.5 mm | 6.5 mm
9 | CC(/C=C/c1ccccc1)=N\NC(=O)c1ccncc1 | 8.5 mm | 6 mm | 6 mm | 6 mm | 8.5 mm | 8.5 mm | 8 mm | 6 mm | 6 mm | 8 mm | 8.5 mm | 6 mm
10 | O=C(N/N=C(/C=C/c1ccccc1)c1ccccc1)c1ccncc1 | 8 mm | 6 mm | 6 mm | 6.5 mm | 8 mm | 8 mm | 8.5 mm | 6 mm | 6 mm | 8 mm | 8.5 mm | 6 mm
11 | O=C(O)c1cn(C2CC2)c2cc(N3CCNCC3)c(F)cc2c1=O [CIPROFLOXACIN] |  | 19 mm | 18 mm | 19.5 mm |  |  |  | 18.5 mm | 18 mm |  |  | 18 mm
